Data on 1 molecule can be found in patent US10610522B2, “Methods for retreating irritable bowel syndrome (IBS)” (Salix Pharmaceuticals, Inc., priority 2014, dated 2020).

Where two headings read alike, the source gives them in different places.

For data set [1], the target named is T1, cytochrome P450 1A2 (Homo sapiens, UniProt P05177).
T1 sequence (P05177 1-516): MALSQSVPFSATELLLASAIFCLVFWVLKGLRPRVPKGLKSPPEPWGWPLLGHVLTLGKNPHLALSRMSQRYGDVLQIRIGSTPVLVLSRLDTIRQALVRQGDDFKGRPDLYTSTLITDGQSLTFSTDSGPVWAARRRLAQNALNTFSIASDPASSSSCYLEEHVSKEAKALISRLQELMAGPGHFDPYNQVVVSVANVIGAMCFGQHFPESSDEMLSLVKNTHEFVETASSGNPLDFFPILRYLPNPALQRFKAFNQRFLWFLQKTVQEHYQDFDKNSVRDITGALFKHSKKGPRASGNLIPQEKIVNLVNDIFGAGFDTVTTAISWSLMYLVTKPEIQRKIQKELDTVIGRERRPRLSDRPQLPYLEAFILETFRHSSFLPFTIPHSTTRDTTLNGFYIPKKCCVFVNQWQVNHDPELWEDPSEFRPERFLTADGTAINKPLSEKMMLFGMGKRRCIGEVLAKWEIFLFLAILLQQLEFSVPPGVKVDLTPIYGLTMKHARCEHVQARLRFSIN
Briefly: In vitro cytochrome P450 inhibition. In kind it is biochemical. To be noted: 2 to 200 ng/mL.

Data set [2] concerns the target cytochrome P450 2C19 (Homo sapiens, UniProt P33261). Briefly: In vitro cytochrome P450 inhibition. It is filed as biochemical. To be noted: 2 to 200 ng/mL.
For data set [3], the system named is rabbit fetuses. Put plainly: Developmental toxicity in pregnant rabbits. It is filed as in vivo.
The test system of data set [4] is IBS. To be noted: cited from earlier work.
[5] abbreviates: Pimentel, et al., responders/retreated.
[6] abbreviates: Yang, et al, responders/retreated.

Sequence of cytochrome P450 2C19 (P33261 whole entry): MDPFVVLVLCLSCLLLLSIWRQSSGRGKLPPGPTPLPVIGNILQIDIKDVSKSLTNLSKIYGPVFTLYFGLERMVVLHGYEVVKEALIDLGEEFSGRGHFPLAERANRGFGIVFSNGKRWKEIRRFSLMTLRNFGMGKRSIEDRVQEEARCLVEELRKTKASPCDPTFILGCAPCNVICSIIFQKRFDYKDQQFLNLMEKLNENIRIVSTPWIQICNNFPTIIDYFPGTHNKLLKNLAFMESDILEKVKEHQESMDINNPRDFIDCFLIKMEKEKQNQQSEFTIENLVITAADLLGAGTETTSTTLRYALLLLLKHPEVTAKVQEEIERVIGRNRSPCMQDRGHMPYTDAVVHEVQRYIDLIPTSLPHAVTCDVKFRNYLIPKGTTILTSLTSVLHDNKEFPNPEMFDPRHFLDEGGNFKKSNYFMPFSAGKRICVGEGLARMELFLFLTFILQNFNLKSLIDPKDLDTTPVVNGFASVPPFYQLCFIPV

Regarding `CO[C@H]1/C=C/O[C@@]2(C)Oc3c(C)c(O)c4c(O)c(c5c(nc6cc(C)ccn65)c4c3C2=O)NC(=O)/C(C)=C\C=C\[C@H](C)[C@H](O)[C@@H](C)[C@@H](O)[C@@H](C)[C@H](OC(C)=O)[C@@H]1C` [Rifaximin, (2S,16Z,18E,20S,21S,22R,23R,24R,25S,26S,27S,28E)-5,6,21,23,25 Pentahydroxy-27-methoxy-2,4,11,16,20,22,24,26-octamethyl-2,7-(epoxypentadeca-(1,11,13)trienimino) benzofuro (4,5-e) pyrido(1,2-a) benzimidazole-1,15(2H)-dione,25-acetate], in data set [1], the “Inhibition of cytochrome P450 1A2” value is on record as “does not inhibit”. Moreover, the “Inhibition of cytochrome P450 2C19” value in data set [2] is listed as “does not inhibit”. The Additional fetal malformations result in data set [3] (fetal rabbits) was “cleft palate, lumbar scoliosis, brachygnathia, interventricular septal defect, and large atrium”. The Fetal malformations result in data set [3] (pregnant rabbits, dose levels that caused reduced body weight gain) is listed as “eye malformations”. In addition, the Initial treatment response in data set [4] (Jolley (~1 yr), IBS-D patients, 1200 mg/day for 10 days) is 56% (25/45); in data set [4] (Pimentel, et al. (>6 yr), 169 Non-C IBS patients (Rome III), 400-550 mg TID for 14 days) it was 75% (111/148); in data set [4] (Weinstock (>6 yr), 99 Non-C IBS patients (Rome II), 1200-1650 mg/day for 10 days), 75% (74/99); in data set [4] (Yang, et al (1.25 yr), 84 IBS patients (Rome I), 1200 mg/day for 10 days) it was 69% (58/84). In addition, the “Re-treatment response (at least 1)” value is reported as “(at least 1): 54% (13/24)” in data set [4] (Jolley, IBS-D patients, 2400 mg/day for 10 days); “(at least 1): >75%” in data set [4] (Pimentel, et al., 1 to 6 re-treatments); “(at least 1): 100%” in data set [4] (Yang, et al, 1200 mg/day for 10 days). The “Complete (>90%) relief” value in data set [4] (Jolley, IBS-D patients) was 11% (5/45). In addition, the “Complete (>90%) relief upon re-treatment” value in data set [4] (Jolley, IBS-D patients) is listed as 13% (3/24). Also, in data set [4] (Pimentel, et al.), the Duration of benefit is listed as approximately 4 m. Besides, the “Re-treatment response, First” value is reported as 54/65 in data set [4] (setting [5]) and 16/16 in data set [4] (setting [6]). For the same molecule, the results for the “Re-treatment response, Second” value in data set [4] (setting [5]) and in data set [4] (setting [6]) were 38/40 and 4/4, respectively. The “Re-treatment response, Third” value in data set [4] (setting [5]) was “Third: 17/18”. The “Patients who did not require re-treatment” value in data set [4] (Weinstock) is on record as 27% did not require. In addition, the “Patients who maintained response for mean 1.6 y” value in data set [4] (Weinstock) is 41% maintained response. Also, in data set [4] (Weinstock), the “Patients with only 1-2 retreatment in 2 y” value is given as 51% only 1-2 retreatment.
